Among the data in patent US12594276B2, “Inhibitors of human immunodeficiency virus replication” (ViiV Healthcare UK (No.5) Limited, priority 2024, dated 2026) are EC50 and CC50 values, retold here.

In series [1] the test system is recombinant NL4-3 virus (nef section replaced with Renilla luciferase gene) in MT-2 cells. The series is described as follows: HIV cell culture assay (antiviral activity, luciferase readout). It is filed as cell-based. The conditions noted are these: Renilla, NL43, MT-2 cells infected for 4-5 days with recombinant NL4-3 Renilla luciferase virus. The method in brief: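 MT-2 cells were infected for 4-5 days with reporter virus made by transfecting the recombinant NL4-3 proviral clone into 293T cells, in the presence of serial compound dilutions. Luciferase activity was read with a live-cell substrate. EC50 came from the exponential median effect equation, (Fa)=1/[1+(ED50/drug conc.)m].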

Series [2] is described as follows: Compound cytotoxicity, XTT-based colorimetric assay. It is filed as cell-based. The conditions noted are these: human. Here is the method:
Compound cytotoxicity and the corresponding CC50 values were determined using the same protocol as described in the antiviral assay except that uninfected cells were used. Cytotoxicity was assessed on day 4 in uninfected MT2 cells by using an XTT (2,3-bis[2-Methoxy-4-nitro-5-sulfophenyl]-2H-tetrazolium-5-carboxyanilide inner salt)-based colorimetric assay (Sigma-Aldrich, St Louis, Mo).

Where [3] appears, read: uninfected MT2 cells, day 4, XTT, read-out: CC50.

Read-outs that look alike come from different tables or passages of the source. Some results are limits rather than exact numbers.

With `CS(=O)(=O)Nc1nn(CCN2CCC(F)(F)C2)c2c(-n3c([C@H](Cc4cc(F)cc(F)c4)NC(=O)Cn4nc(C5CC5)c5c4C[C@@H]4C[C@H]54)nc4nc(C5CCC(F)(F)CC5)ccc4c3=O)ccc(Cl)c12` (atropisomer, axis not shown; (P)) [Example 24, N-[(1S)-1-[(3P)-3-{4-chloro-1-[2-(3,3-difluoropyrrolidin-1-yl)ethyl]-3-methanesulfonamido-1H-indazol-7-yl}-7-(4,4-difluorocyclohexyl)-4-oxo-3H,4H-pyrido[2,3-d]pyrimidin-2-yl]-2-(3,5-difluorophenyl)ethyl]-2-[(2S,4S)-9-cyclopropyl-7,8-diazatricyclo[4.3.0.0^2,^4]nona-1(6),8-dien-7-yl]acetamide], the EC50 in series [1] turned out to be 0.007 nM. Besides, in series [2] (setting [3]), the CC50 at 4 days was more than 50 nM.

On to `CS(=O)(=O)Nc1nn(CCN2C[C@@H](F)[C@@H](F)C2)c2c(-n3c([C@H](Cc4cc(F)cc(F)c4)NC(=O)Cn4nc(C(F)F)c5c4C(F)(F)[C@@H]4C[C@H]54)nc4nc(C5CCC(F)(F)CC5)ccc4c3=O)ccc(Cl)c12` (atropisomer, axis not shown; (P)) [Example 26, N-[(1S)-1-[(3P)-3-(4-chloro-1-{2-[(3R,4S)-3,4-difluoropyrrolidin-1-yl]ethyl}-3-methanesulfonamido-1H-indazol-7-yl)-7-(4,4-difluorocyclohexyl)-4-oxo-3H,4H-pyrido[2,3-d]pyrimidin-2-yl]-2-(3,5-difluorophenyl)ethyl]-2-[(2S,4R)-9-(difluoromethyl)-5,5-difluoro-7,8-diazatricyclo[4.3.0.0^2,^4]nona-1(6),8-dien-7-yl]acetamide], for which the concentration for a half-maximal effect (EC50) in series [1] worked out at 0.011 nM. Further, the CC50 at 4 days in series [2] (setting [3]) is more than 50 nM.

Take `CS(=O)(=O)Nc1nn(CCN[C@@H]2CCCOC2)c2c(-n3c([C@H](Cc4cc(F)cc(F)c4)NC(=O)Cn4nc(C(F)F)c5c4C(F)(F)[C@@H]4C[C@H]54)nc4nc(C5CCC(F)(F)CC5)ccc4c3=O)ccc(Cl)c12` (atropisomer, axis not shown; (P)) [Example 40, N-[(1S)-1-[(3P)-3-[4-chloro-3-methanesulfonamido-1-(2-{[(3R)-oxan-3-yl]amino}ethyl)-1H-indazol-7-yl]-7-(4,4-difluorocyclohexyl)-4-oxo-3H,4H-pyrido[2,3-d]pyrimidin-2-yl]-2-(3,5-difluorophenyl)ethyl]-2-[(2S,4R)-9-(difluoromethyl)-5,5-difluoro-7,8-diazatricyclo[4.3.0.0^2,^4]nona-1(6),8-dien-7-yl]acetamide]: the EC50 in series [1] was 0.028 nM. Also, in series [2] (setting [3]), the CC50 at 4 days is more than 50 nM.

For `CS(=O)(=O)Nc1nn(CCN2CC[C@](F)(C(F)(F)F)C2)c2c(-n3c([C@H](Cc4cc(F)cc(F)c4)NC(=O)Cn4nc(C(F)F)c5c4C(F)(F)[C@@H]4C[C@H]54)nc4nc(C5CCC(F)(F)CC5)ccc4c3=O)ccc(Cl)c12` (atropisomer, axis not shown; (P)) [Example 41], in series [1], the EC50 amounted to 0.015 nM. Besides, the CC50 at 4 days in series [2] (setting [3]) is more than 50 nM.

With `CS(=O)(=O)Nc1nn(CCN2CC[C@@](F)(C(F)(F)F)C2)c2c(-n3c([C@H](Cc4cc(F)cc(F)c4)NC(=O)Cn4nc(C(F)F)c5c4C(F)(F)[C@@H]4C[C@H]54)nc4nc(C5CCC(F)(F)CC5)ccc4c3=O)ccc(Cl)c12` (atropisomer, axis not shown; (P)) [Example 42, N-[(1S)-1-[(3P)-3-(4-chloro-1-{2-[(3S)-3-fluoro-3-(trifluoromethyl)pyrrolidin-1-yl]ethyl}-3-methanesulfonamido-1H-indazol-7-yl)-7-(4,4-difluorocyclohexyl)-4-oxo-3H,4H-pyrido[2,3-d]pyrimidin-2-yl]-2-(3,5-difluorophenyl)ethyl]-2-[(2S,4R)-9-(difluoromethyl)-5,5-difluoro-7,8-diazatricyclo[4.3.0.0^2,^4]nona-1(6),8-dien-7-yl]acetamide], the EC50 in series [1] was 0.021 nM. In series [2] (setting [3]), the CC50 at 4 days is more than 50 nM.

Consider `CS(=O)(=O)Nc1nn(CCN2[C@@H]3CC[C@H]2CC(F)(F)C3)c2c(-n3c([C@H](Cc4cc(F)cc(F)c4)NC(=O)Cn4nc(C(F)F)c5c4C(F)(F)[C@@H]4C[C@H]54)nc4nc(C5CCC(F)(F)CC5)ccc4c3=O)ccc(Cl)c12` (atropisomer, axis not shown; (P)) [Example 43, N-[(1S)-1-[(3P)-3-(4-chloro-1-{2-[(1R,5S)-3,3-difluoro-8-azabicyclo[3.2.1]octan-8-yl]ethyl}-3-methanesulfonamido-1H-indazol-7-yl)-7-(4,4-difluorocyclohexyl)-4-oxo-3H,4H-pyrido[2,3-d]pyrimidin-2-yl]-2-(3,5-difluorophenyl)ethyl]-2-[(2S,4R)-9-(difluoromethyl)-5,5-difluoro-7,8-diazatricyclo[4.3.0.0^2,^4]nona-1(6),8-dien-7-yl]acetamide], for which, in series [1], the EC50 is 0.021 nM. Also, in series [2], the CC50 at 4 days is more than 50 nM.

Take `CS(=O)(=O)Nc1nn(CCN2CC(F)(F)C2)c2c(-n3c([C@H](Cc4cc(F)cc(F)c4)NC(=O)Cn4nc(C(F)F)c5c4C(F)(F)[C@@H]4C[C@H]54)nc4nc(C5CCC(F)(F)CC5)ccc4c3=O)ccc(Cl)c12` (atropisomer, axis not shown; (P)) [Example 48, N-[(1S)-1-[(3P)-3-{4-chloro-1-[2-(3,3-difluoroazetidin-1-yl)ethyl]-3-methanesulfonamido-1H-indazol-7-yl}-7-(4,4-difluorocyclohexyl)-4-oxo-3H,4H-pyrido[2,3-d]pyrimidin-2-yl]-2-(3,5-difluorophenyl)ethyl]-2-[(2S,4R)-9-(difluoromethyl)-5,5-difluoro-7,8-diazatricyclo[4.3.0.0^2,^4]nona-1(6),8-dien-7-yl]acetamide]: the EC50 in series [1] was determined as 0.018 nM. Further, the CC50 at 4 days in series [2] (setting [3]) was more than 50 nM.

For the compound `Cc1cc(C2CCC(F)(F)CC2)nc2nc([C@H](Cc3cc(F)cc(F)c3)NC(=O)Cn3nc(C(F)F)c4c3C(F)(F)[C@@H]3C[C@H]43)n(-c3ccc(Cl)c4c(NS(C)(=O)=O)nn(CCOC(C)C)c34)c(=O)c12` (atropisomer, axis not shown; (P)) [Example 59, N-[(1S)-1-[(3P)-3-{4-chloro-3-methanesulfonamido-1-[2-(propan-2-yloxy)ethyl]-1H-indazol-7-yl}-7-(4,4-difluorocyclohexyl)-5-methyl-4-oxo-3H,4H-pyrido[2,3-d]pyrimidin-2-yl]-2-(3,5-difluorophenyl)ethyl]-2-[(2S,4R)-9-(difluoromethyl)-5,5-difluoro-7,8-diazatricyclo[4.3.0.0^2,^4]nona-1(6),8-dien-7-yl]acetamide], in series [1], the EC50 is 0.011 nM. The CC50 at 4 days in series [2] (setting [3]) was more than 50 nM.

In the case of `CCOCCn1nc(NS(C)(=O)=O)c2c(Cl)ccc(-n3c([C@H](Cc4cc(F)cc(F)c4)NC(=O)Cn4nc(C(F)F)c5c4C(F)(F)[C@@H]4C[C@H]54)nc4nc(C5CCC(F)(F)CC5)cc(C)c4c3=O)c21` (atropisomer, axis not shown; (P)) [Example 60, N-[(1S)-1-[(3P)-3-[4-chloro-1-(2-ethoxyethyl)-3-methanesulfonamido-1H-indazol-7-yl]-7-(4,4-difluorocyclohexyl)-5-methyl-4-oxo-3H,4H-pyrido[2,3-d]pyrimidin-2-yl]-2-(3,5-difluorophenyl)ethyl]-2-[(2S,4R)-9-(difluoromethyl)-5,5-difluoro-7,8-diazatricyclo[4.3.0.0^2,^4]nona-1(6),8-dien-7-yl]acetamide], the concentration for a half-maximal effect (EC50) in series [1] worked out at 0.012 nM. In addition, the CC50 at 4 days in series [2] (setting [3]) is more than 50 nM.

`Cc1cc(C2CCC(F)(F)CC2)nc2nc([C@H](Cc3cc(F)cc(F)c3)NC(=O)Cn3nc(C(F)F)c4c3C(F)(F)[C@@H]3C[C@H]43)n(-c3ccc(Cl)c4c(NS(C)(=O)=O)nn(CCOCC(F)(F)F)c34)c(=O)c12` (atropisomer, axis not shown; (P)) [Example 72, N-[(1S)-1-[(3P)-3-{4-chloro-3-methanesulfonamido-1-[2-(2,2,2-trifluoroethoxy)ethyl]-1H-indazol-7-yl}-7-(4,4-difluorocyclohexyl)-5-methyl-4-oxo-3H,4H-pyrido[2,3-d]pyrimidin-2-yl]-2-(3,5-difluorophenyl)ethyl]-2-[(2S,4R)-9-(difluoromethyl)-5,5-difluoro-7,8-diazatricyclo[4.3.0.0^2,^4]nona-1(6),8-dien-7-yl]acetamide]: the EC50 in series [1] turned out to be 0.029 nM. Also, the CC50 at 4 days in series [2] (setting [3]) is more than 50 nM.

As for `CO[C@H](C)Cn1nc(NS(C)(=O)=O)c2c(Cl)ccc(-n3c([C@H](Cc4cc(F)cc(F)c4)NC(=O)Cn4nc(C(F)F)c5c4C(F)(F)[C@@H]4C[C@H]54)nc4nc(C5CCC(F)(F)CC5)cc(C)c4c3=O)c21` (atropisomer, axis not shown; (P)) [Example 77, N-[(1S)-1-[(3P)-3-{4-chloro-3-methanesulfonamido-1-[(2R)-2-methoxypropyl]-1H-indazol-7-yl}-7-(4,4-difluorocyclohexyl)-5-methyl-4-oxo-3H,4H-pyrido[2,3-d]pyrimidin-2-yl]-2-(3,5-difluorophenyl)ethyl]-2-[(2S,4R)-9-(difluoromethyl)-5,5-difluoro-7,8-diazatricyclo[4.3.0.0^2,^4]nona-1(6),8-dien-7-yl]acetamide], in series [1], the EC50 was 0.018 nM. The CC50 at 4 days in series [2] (setting [3]) is more than 50 nM.
